Measured values reported in patent publication EP4786487A1, “PEPTIDE” (Peptidream Inc, priority 2023, dated 2025).
Starred links: 1 amine or outer side, 2 acyl side, 3 side chain; linkers in the order of their positions; H or OH if unused. Positions of bridges follow the written chain, without caps; N, C: chain ends. Non-standard residues stand in square brackets, D forms with d. Residues, ends and D or L forms follow the SMILES beside them. *: point of attachment. Ala(1-CH2CO2H-4-piperidyl) = N[C@@H](CC1CCN(CC(=O)O)CC1)C(=O)O; Phe(3-OCH2COOH) = N[C@@H](Cc1cccc(OCC(=O)O)c1)C(=O)O; Phe(4-COOH) = N[C@@H](Cc1ccc(C(=O)O)cc1)C(=O)O; Piperazinyl(4-CH2COOH) = O=C(O)CN1CCN(*)CC1; Gly(N(CH2)3COOH) = O=C(O)CCCNCC(=O)O; NMe4Pal = CN[C@@H](Cc1ccncc1)C(=O)O; X1 = CCCCCCC[C@H](N[*:1])C(=O)[*:2]; X7 = COCCCCC[C@H](N[*:1])C(=O)[*:2]; X5 = CC(=O)NCCCN(CC(=O)[*:2])[*:1]; Gly(N-(CH2)3OMe) = COCCCNCC(=O)O; NMeF = CN[C@@H](Cc1ccccc1)C(=O)O; 4Pal = N[C@@H](Cc1ccncc1)C(=O)O; NMeA = CN[C@@H](C)C(=O)O; Nme = COCCNCC(=O)O; Sar = CNCC(=O)O

Experiments:
GDF-11 = molecular target: T1, GDF-11 (Homo sapiens, UniProt O95390); assay: HepG2 reporter gene assay, Evaluation Procedure (2): 2-concentrations assay, GDF-11 inhibition; format: cell-based; conditions: GDF-11 10 ng/mL; for inhibition at 0.03 µM: HepG2, peptide 30nM, read-out: GDF11 Inhibition 30nM; for inhibition at 0.1 µM: HepG2, peptide 100nM, read-out: GDF11 Inhibition 100nM
T1 construct: purchased R&D systems 1958-GD-G8/CF
T1 sequence (O95390 299-407): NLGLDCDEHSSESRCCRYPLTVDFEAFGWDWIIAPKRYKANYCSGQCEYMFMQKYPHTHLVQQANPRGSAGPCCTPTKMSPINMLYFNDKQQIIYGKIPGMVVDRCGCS
In short: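 HepG2 cells carrying the transfected pGL3(CAGA)12-luc reporter, a pGL3 vector with luciferase placed downstream of 12 CAGA repeats, were stimulated with GDF-11 at a final 10 ng/mL together with test peptide. Blank wells received no GDF-11 and no peptide. Plates were incubated 20 to 24 hours at 37°C with 5% CO2. Luminescence from One-Glo substrate was read to calculate percent inhibition.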

Myostatin = molecular target: T2, Myostatin (Homo sapiens, UniProt O14793); assay: HepG2 reporter gene assay, Evaluation Procedure (2): 2-concentrations assay, myostatin inhibition; format: cell-based; conditions: Myostatin 10 ng/mL, HepG2; for inhibition at 0.03 µM: peptide 30nM, read-out: Myostatin Inhibition 30nM; for inhibition at 0.1 µM: peptide 100nM, read-out: Myostatin Inhibition 100nM
T2 construct: active myostatin (also called mature myostatin) is a homodimer consisting of two C-terminal growth factor domains; purchased R&D systems 788-G8/CF
T2 sequence (O14793 267-375): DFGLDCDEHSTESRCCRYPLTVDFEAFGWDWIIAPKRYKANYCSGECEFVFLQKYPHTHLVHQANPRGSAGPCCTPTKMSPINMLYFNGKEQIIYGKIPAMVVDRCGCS
In short: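 HepG2 cells (HB-8065, ATCC) carrying the transfected pGL3(CAGA)12-luc reporter plasmid were treated with myostatin (788-G8/CF, R&D systems) at a final concentration of 10 ng/mL plus peptide and incubated at 37°C, 5% CO2 for 20 to 24 hours. Luminescence was read after adding PBS mixed 1:1 with One-Glo substrate, and inhibition rate was calculated.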

inhibition at 0.03 µM (GDF-11)	inhibition at 0.1 µM (GDF-11)	inhibition at 0.03 µM (Myostatin)	inhibition at 0.1 µM (Myostatin)	Structure (SMILES)
0%	0%	90%	98%	CCCCCCC[C@@H]1NC(=O)[C@H](Cc2ccccc2)N(C)C(=O)[C@H](CCCNC(=N)N)NC(=O)[C@H](Cc2ccc(C(=O)O)cc2)NC(=O)[C@H](Cc2cccc(OCC(=O)O)c2)NC(=O)CN(C)C(=O)[C@H]([C@@H](C)CC)NC(=O)[C@H](Cc2ccccc2)N(C)C(=O)[C@H](Cc2ccc(O)cc2)NC(=O)[C@H](Cc2c[nH]c3ccccc23)NC(=O)[C@H](C)NC(=O)[C@H](C)NC(=O)CSC[C@H](C(=O)O)NC(=O)[C@H](Cc2ccncc2)N(C)C(=O)[C@H](C)N(C)C1=O [Myostatin_99_v213] ({CH2CO}-AAWY[NMeF]I[Sar][Phe(3-OCH2COOH)][Phe(4-COOH)]R[NMeF][X1][NMeA][NMe4Pal][dC]-OH; thioether N-15)
0%	0%	44%	74%	CCCCCCC[C@@H]1NC(=O)[C@H](Cc2ccccc2)N(C)C(=O)[C@H](CCCNC(=N)N)NC(=O)[C@H](Cc2ccncc2)NC(=O)[C@H](Cc2cccc(OCC(=O)O)c2)NC(=O)CN(C)C(=O)[C@H]([C@@H](C)CC)NC(=O)[C@H](Cc2ccccc2)N(C)C(=O)[C@H](Cc2ccc(O)cc2)NC(=O)[C@H](Cc2c[nH]c3ccccc23)NC(=O)[C@@H](CCC(=O)O)NC(=O)[C@H](C)NC(=O)CSC[C@H](C(=O)O)NC(=O)[C@H](Cc2ccccc2)N(C)C(=O)[C@H](C)N(C)C1=O [Myostatin_99_v218] ({CH2CO}-A[dE]WY[NMeF]I[Sar][Phe(3-OCH2COOH)][4Pal]R[NMeF][X1][NMeA][NMeF][dC]-OH; thioether N-15)
0%	5%	95%	99%	CCCCCCC[C@@H]1NC(=O)[C@H](Cc2ccccc2)N(C)C(=O)[C@H](CCCNC(=N)N)NC(=O)[C@H](Cc2ccc(C(=O)O)cc2)NC(=O)[C@H](Cc2cccc(OCC(=O)O)c2)NC(=O)CN(C)C(=O)[C@H]([C@@H](C)CC)NC(=O)[C@H](Cc2ccccc2)N(C)C(=O)[C@H](Cc2ccc(O)cc2)NC(=O)[C@H](Cc2c[nH]c3ccccc23)NC(=O)[C@H](C)NC(=O)[C@H](C)NC(=O)CSC[C@@H](C(=O)N2CCN(CC(=O)O)CC2)NC(=O)[C@H](Cc2ccccc2)N(C)C(=O)[C@H](C)N(C)C1=O [Myostatin_99_v220] ({CH2CO}-AAWY[NMeF]I[Sar][Phe(3-OCH2COOH)][Phe(4-COOH)]R[NMeF][X1][NMeA][NMeF]C-{Piperazinyl(4-CH2COOH)}; thioether N-15)
0%	8%	93%	99%	CCCCCCC[C@@H]1NC(=O)[C@H](Cc2ccccc2)N(C)C(=O)[C@H](CCCNC(=N)N)NC(=O)[C@H](Cc2ccc(C(=O)O)cc2)NC(=O)[C@H](Cc2ccncc2)NC(=O)CN(C)C(=O)[C@H]([C@@H](C)CC)NC(=O)[C@H](Cc2ccccc2)N(C)C(=O)[C@H](Cc2ccc(O)cc2)NC(=O)[C@H](Cc2c[nH]c3ccccc23)NC(=O)[C@H](C)NC(=O)CN(CC(=O)O)C(=O)CSC[C@H](C(=O)O)NC(=O)[C@H](Cc2ccccc2)N(C)C(=O)[C@H](C)N(C)C1=O [Myostatin_99_v222]
0%	28%	94%	99%	CCCCCCC[C@@H]1NC(=O)[C@H](Cc2ccccc2)N(C)C(=O)[C@H](CCCNC(=N)N)NC(=O)[C@H](Cc2ccc(C(=O)O)cc2)NC(=O)[C@H](Cc2ccncc2)NC(=O)CN(C)C(=O)[C@H]([C@@H](C)CC)NC(=O)[C@H](Cc2ccccc2)N(C)C(=O)[C@H](Cc2ccc(O)cc2)NC(=O)[C@H](Cc2c[nH]c3ccccc23)NC(=O)[C@H](C)NC(=O)CN(CCCOC)C(=O)CSC[C@H](C(=O)O)NC(=O)[C@H](Cc2ccccc2)N(C)C(=O)[C@H](C)N(C)C1=O [Myostatin_99_v223] ({CH2CO}-[Gly(N-(CH2)3OMe)]AWY[NMeF]I[Sar][4Pal][Phe(4-COOH)]R[NMeF][X1][NMeA][NMeF][dC]-OH; thioether N-15)
0%	0%	96%	99%	CCCCCCC[C@@H]1NC(=O)[C@H](Cc2ccccc2)N(C)C(=O)[C@H](CCCNC(=N)N)NC(=O)[C@H](Cc2ccc(C(=O)O)cc2)NC(=O)[C@H](Cc2ccncc2)NC(=O)CN(C)C(=O)[C@H]([C@@H](C)CC)NC(=O)[C@H](Cc2ccccc2)N(C)C(=O)[C@H](Cc2ccc(O)cc2)NC(=O)[C@H](Cc2c[nH]c3ccccc23)NC(=O)[C@H](C)NC(=O)CN(CCOC)C(=O)CSC[C@H](C(=O)O)NC(=O)[C@H](Cc2ccccc2)N(C)C(=O)[C@H](C)N(C)C1=O [Myostatin_99_v224] ({CH2CO}-[Nme]AWY[NMeF]I[Sar][4Pal][Phe(4-COOH)]R[NMeF][X1][NMeA][NMeF][dC]-OH; thioether N-15)
0%	3%	94%	99%	CCCCCCC[C@@H]1NC(=O)[C@H](Cc2ccccc2)N(C)C(=O)[C@H](CCCNC(=N)N)NC(=O)[C@H](Cc2ccc(C(=O)O)cc2)NC(=O)[C@H](Cc2ccncc2)NC(=O)CN(C)C(=O)[C@H]([C@@H](C)CC)NC(=O)[C@H](Cc2ccccc2)N(C)C(=O)[C@H](Cc2ccc(O)cc2)NC(=O)[C@H](Cc2c[nH]c3ccccc23)NC(=O)[C@H](C)NC(=O)CN(CCCNC(C)=O)C(=O)CSC[C@H](C(=O)O)NC(=O)[C@H](Cc2ccccc2)N(C)C(=O)[C@H](C)N(C)C1=O [Myostatin_99_v225] ({CH2CO}-[X5]AWY[NMeF]I[Sar][4Pal][Phe(4-COOH)]R[NMeF][X1][NMeA][NMeF][dC]-OH; thioether N-15)
4%	0%	19%	60%	CC[C@H](C)[C@@H]1NC(=O)[C@H](Cc2ccccc2)N(C)C(=O)[C@H](Cc2ccc(O)cc2)NC(=O)[C@H](Cc2c[nH]c3ccccc23)NC(=O)[C@H](C)NC(=O)CN(CCCC(=O)O)C(=O)CSC[C@H](C(=O)O)NC(=O)[C@H](Cc2ccccc2)N(C)C(=O)[C@H](C)N(C)C(=O)[C@H](CCCCCOC)NC(=O)[C@H](Cc2ccccc2)N(C)C(=O)[C@H](CCCNC(=N)N)NC(=O)[C@H](Cc2ccc(C(=O)O)cc2)NC(=O)[C@H](Cc2ccncc2)NC(=O)CN(C)C1=O [Myostatin_99_v228] ({CH2CO}-[Gly(N(CH2)3COOH)]AWY[NMeF]I[Sar][4Pal][Phe(4-COOH)]R[NMeF][X7][NMeA][NMeF][dC]-OH; thioether N-15)
0%	0%	58%	84%	CCCCCCC[C@@H]1NC(=O)[C@H](Cc2ccccc2)N(C)C(=O)[C@H](CCCNC(=N)N)NC(=O)[C@H](Cc2ccc(C(=O)O)cc2)NC(=O)[C@H](Cc2ccncc2)NC(=O)CN(C)C(=O)[C@H]([C@@H](C)CC)NC(=O)[C@H](Cc2ccccc2)N(C)C(=O)[C@H](Cc2ccc(O)cc2)NC(=O)[C@H](Cc2c[nH]c3ccccc23)NC(=O)[C@H](C)NC(=O)[C@H](CC2CCN(CC(=O)O)CC2)NC(=O)CSC[C@H](C(=O)O)NC(=O)[C@H](Cc2ccccc2)N(C)C(=O)[C@H](C)N(C)C1=O [Myostatin_99_v232] ({CH2CO}-[Ala(1-CH2CO2H-4-piperidyl)]AWY[NMeF]I[Sar][4Pal][Phe(4-COOH)]R[NMeF][X1][NMeA][NMeF][dC]-OH; thioether N-15)
8%	0%	50%	85%	CCCCCCC[C@@H]1NC(=O)[C@H](Cc2ccccc2)N(C)C(=O)[C@H](CCCNC(=N)N)NC(=O)[C@H](Cc2ccc(C(=O)O)cc2)NC(=O)[C@H](CC2CCN(CC(=O)O)CC2)NC(=O)CN(C)C(=O)[C@H]([C@@H](C)CC)NC(=O)[C@H](Cc2ccccc2)N(C)C(=O)[C@H](Cc2ccc(O)cc2)NC(=O)[C@H](Cc2c[nH]c3ccccc23)NC(=O)[C@H](C)NC(=O)CN(CCCC(=O)O)C(=O)CSC[C@H](C(=O)O)NC(=O)[C@H](Cc2ccccc2)N(C)C(=O)[C@H](C)N(C)C1=O [Myostatin_99_v233] ({CH2CO}-[Gly(N(CH2)3COOH)]AWY[NMeF]I[Sar][Ala(1-CH2CO2H-4-piperidyl)][Phe(4-COOH)]R[NMeF][X1][NMeA][NMeF][dC]-OH; thioether N-15)
0%	0%	91%	99%	CCCCCCC[C@@H]1NC(=O)[C@H](Cc2ccccc2)N(C)C(=O)[C@H](CCCNC(=N)N)NC(=O)[C@H](Cc2ccc(C(=O)O)cc2)NC(=O)[C@H](Cc2ccncc2)NC(=O)CN(C)C(=O)[C@H]([C@@H](C)CC)NC(=O)[C@H](Cc2ccccc2)N(C)C(=O)[C@H](Cc2ccc(O)cc2)NC(=O)[C@H](Cc2c[nH]c3ccccc23)NC(=O)[C@H](C)NC(=O)CN(CCCC(=O)O)C(=O)CSC[C@H](C(=O)N[C@@H](CC2CCN(CC(=O)O)CC2)C(N)=O)NC(=O)[C@H](Cc2ccccc2)N(C)C(=O)[C@H](C)N(C)C1=O [Myostatin_99_v235] ({CH2CO}-[Gly(N(CH2)3COOH)]AWY[NMeF]I[Sar][4Pal][Phe(4-COOH)]R[NMeF][X1][NMeA][NMeF][dC][Ala(1-CH2CO2H-4-piperidyl)]-NH2; thioether N-15)
